Measurements: ChEMBL document CHEMBL1201862, “PubChem BioAssay data set” (2004)
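These data come from cells grown in 96-well plates and exposed to compound for 48 hours at five concentrations. Abbreviation: GI50, concentration required for 50% inhibition of growth.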 Active and inactive are the calls of the source. Cut-off read from the data, not from the text of the source: active = GI50 up to about 1.1 µM and inactive = higher.

Tests used:
Experiment in all cases: NCI-60 cell line screen, 48 h
[1] = tested on: MCF7
[2] = tested on: A549
[3] = tested on: SK-MEL-5
[4] = tested on: SK-MEL-28
[5] = tested on: DU-145
[6] = tested on: MDA-N
[7] = tested on: UO-31
[8] = tested on: SK-MEL-2
[9] = tested on: T47D
[10] = tested on: SW-620
[11] = tested on: MDA-MB-231
[12] = tested on: HCT-116
[13] = tested on: IGROV-1
[14] = tested on: SF-295
[15] = tested on: SF-539
[16] = tested on: A498
[17] = tested on: TK-10
[18] = tested on: HCT-15
[19] = tested on: BT-549
[20] = tested on: OVCAR-8
[21] = tested on: PC-3
[22] = tested on: RPMI-8226
[23] = tested on: K562
[24] = tested on: OVCAR-5
[25] = tested on: HCC 2998
[26] = tested on: NCI-H23
[27] = tested on: SN12C
[28] = tested on: ACHN
[29] = tested on: SNB-19
[30] = tested on: HL-60
[31] = tested on: NCI-H460
[32] = tested on: RXF 393
[33] = tested on: EKVX
[34] = tested on: LOX IMVI
[35] = tested on: MOLT-4
[36] = tested on: CAKI-1
[37] = tested on: SK-OV-3
[38] = tested on: UACC-62
[39] = tested on: NCI/ADR-RES
[40] = tested on: M14
[41] = tested on: 786-0
[42] = tested on: HOP-62
[43] = tested on: COLO 205
[44] = tested on: NCI-H522
[45] = tested on: OVCAR-3
[46] = tested on: CCRF-CEM
[47] = tested on: HT-29
[48] = tested on: MDA-MB-435
[49] = tested on: OVCAR-4
[50] = tested on: Hs-578T
[51] = tested on: HOP-92
[52] = tested on: SF-268
[53] = tested on: UACC-257
[54] = tested on: NCI-H226
[55] = tested on: U-251
[56] = tested on: KM12
[57] = tested on: SNB-75
[58] = tested on: Malme-3M

## CC1=C(C(=O)NNC(=O)c2ccccc2)CC(C(=O)NNC(=O)c2ccccc2)=C(C)N1
[1]
  GI50: > 100 µM (inactive)
[2]
  GI50: > 100 µM (inactive)
[3]
  GI50: > 100 µM (inactive)
[4]
  GI50: > 100 µM (inactive)
[5]
  GI50: > 100 µM (inactive)
[6]
  GI50: > 100 µM (inactive)
[7]
  GI50: > 100 µM (inactive)
[8]
  GI50: > 100 µM (inactive)
[9]
  GI50: > 100 µM (inactive)
[10]
  GI50: > 100 µM (inactive)
[11]
  GI50: > 100 µM (inactive)
[12]
  GI50: > 100 µM (inactive)
[13]
  GI50: > 100 µM (inactive)
[14]
  GI50: > 100 µM (inactive)
[15]
  GI50: > 100 µM (inactive)
[16]
  GI50: > 100 µM (inactive)
[17]
  GI50: > 100 µM (inactive)
[18]
  GI50: > 100 µM
[19]
  GI50: > 100 µM (inactive)
[20]
  GI50: > 100 µM (inactive)
[21]
  GI50: > 100 µM (inactive)
[22]
  GI50: > 100 µM (inactive)
[23]
  GI50: > 100 µM (inactive)
[24]
  GI50: > 100 µM (inactive)
[25]
  GI50: > 100 µM (inactive)
[26]
  GI50: > 100 µM (inactive)
[27]
  GI50: > 100 µM (inactive)
[28]
  GI50: > 100 µM (inactive)
[29]
  GI50: > 100 µM (inactive)
[30]
  GI50: > 100 µM (inactive)
[31]
  GI50: 92.9 µM (inactive)
[32]
  GI50: > 100 µM (inactive)
[33]
  GI50: > 100 µM (inactive)
[34]
  GI50: > 100 µM (inactive)
[35]
  GI50: > 100 µM (inactive)
[36]
  GI50: > 100 µM (inactive)
[37]
  GI50: > 100 µM (inactive)
[38]
  GI50: > 100 µM (inactive)
[39]
  GI50: > 100 µM (inactive)
[40]
  GI50: > 100 µM (inactive)
[41]
  GI50: > 100 µM (inactive)
[42]
  GI50: > 100 µM (inactive)
[43]
  GI50: > 100 µM (inactive)
[44]
  GI50: > 100 µM (inactive)
[45]
  GI50: > 100 µM (inactive)
[46]
  GI50: > 100 µM (inactive)
[47]
  GI50: > 100 µM (inactive)
[48]
  GI50: > 100 µM (inactive)
[49]
  GI50: > 100 µM (inactive)
[50]
  GI50: > 100 µM (inactive)
[51]
  GI50: > 100 µM (inactive)
[52]
  GI50: > 100 µM (inactive)
[53]
  GI50: > 100 µM (inactive)
[54]
  GI50: > 100 µM (inactive)
[55]
  GI50: > 100 µM (inactive)
[56]
  GI50: > 100 µM (inactive)

## CC1=CCCC(C)(O)C2CC(CCC3(C)OC3CC1)C(C)C(=O)O2 (configuration not stated)
[1]
  GI50: > 100 µM (inactive)
[2]
  GI50: > 100 µM (inactive)
[3]
  GI50: > 100 µM (inactive)
[4]
  GI50: > 100 µM (inactive)
[5]
  GI50: > 100 µM (inactive)
[6]
  GI50: > 100 µM (inactive)
[7]
  GI50: > 100 µM (inactive)
[8]
  GI50: > 100 µM (inactive)
[9]
  GI50: > 100 µM (inactive)
[10]
  GI50: > 100 µM (inactive)
[11]
  GI50: > 100 µM (inactive)
[12]
  GI50: > 100 µM (inactive)
[13]
  GI50: > 100 µM (inactive)
[14]
  GI50: > 100 µM (inactive)
[15]
  GI50: > 100 µM (inactive)
[16]
  GI50: > 100 µM (inactive)
[17]
  GI50: > 100 µM (inactive)
[18]
  GI50: > 100 µM
[19]
  GI50: > 100 µM (inactive)
[20]
  GI50: > 100 µM (inactive)
[21]
  GI50: > 100 µM (inactive)
[22]
  GI50: > 100 µM (inactive)
[23]
  GI50: > 100 µM (inactive)
[24]
  GI50: > 100 µM (inactive)
[25]
  GI50: > 100 µM (inactive)
[26]
  GI50: > 100 µM (inactive)
[27]
  GI50: > 100 µM (inactive)
[28]
  GI50: > 100 µM (inactive)
[57]
  GI50: > 100 µM (inactive)
[29]
  GI50: > 100 µM (inactive)
[30]
  GI50: > 100 µM (inactive)
[31]
  GI50: > 100 µM (inactive)
[33]
  GI50: > 100 µM (inactive)
[34]
  GI50: > 100 µM (inactive)
[35]
  GI50: 43.7 µM (inactive)
[36]
  GI50: > 100 µM (inactive)
[37]
  GI50: > 100 µM (inactive)
[38]
  GI50: > 100 µM (inactive)
[39]
  GI50: > 100 µM (inactive)
[40]
  GI50: > 100 µM (inactive)
[58]
  GI50: > 100 µM (inactive)
[41]
  GI50: > 100 µM (inactive)
[43]
  GI50: > 100 µM (inactive)
[44]
  GI50: > 100 µM (inactive)
[45]
  GI50: > 100 µM (inactive)
[46]
  GI50: > 100 µM (inactive)
[47]
  GI50: > 100 µM (inactive)
[48]
  GI50: > 100 µM (inactive)
[49]
  GI50: > 100 µM (inactive)
[50]
  GI50: > 100 µM (inactive)
[51]
  GI50: > 10 µM (inactive)
[52]
  GI50: > 100 µM (inactive)
[53]
  GI50: > 100 µM (inactive)
[54]
  GI50: > 100 µM (inactive)
[55]
  GI50: > 100 µM (inactive)
[56]
  GI50: > 100 µM (inactive)
